“Also recorded” adds a separate entry of the source.
B1: IL-1a: typical factor occurring in the peritumoral environment and inflammatory conditions (protein, UniProt P01583 113-271, looked up)
Interleukin-1 alpha: SAPFSFLSNVKYNFMRIIKYEFILNDALNQSIIRANDQYLTAAALHNLDEAVKFDMGAYKSSKDDAKITVILRISKTQLYVTAQDEDQPVLLKEMPEIPKTITGSETNLLFFWETHGTKNYFTSVAHPNLFIATKQDYWVCLAGGPPSITDFQILENQA

Columns and labels:
Assay type in all cases: cell-based, human
[1] = test system: HUVEC microvessels with U87MG cells; experiment: Cancer angiogenesis assay in microfluidic chip (angiogenic sprouting from microvessels induced by U87MG cells); conditions: bevacizumab 500 μg/ml
Description: Human umbilical vein endothelial cells (HUVEC, Lonza) were cultured in endothelial cell growth medium (EGM-2, Lonza). Normal human lung fibroblasts (LF, Lonza) were cultured in fibroblast growth medium (FGM-2, Lonza). Human glioblastoma cells (U87MG, ATCC, Virginia) were cultured in DMEM medium supplemented with 10% fetal bovine serum (FBS), penicillin (100 U/ml) and streptomycin (100 U/ml). MDA-MA-231 cells were purchased from the ATCC (Manassas, Va.). MDA-MB-231 cells were transfected with a pEGFP plasmid, and cells were selected using 1 mg/ml G418 (A.G. scientific, Inc.). MDA-MA-231 GFP cells obtained from monoclones were incubated in RPMI1640 (WELGENE, Korea) supplemented with 10% fetal bovine serum, 1% penicillin/streptomycin (Gibco, BRL) and 250 μg/ml G418 (A.G. scientific, Inc.). All cells were incubated in a humidified incubator at 37° C. under 5% CO2. For immunostaining, endothelial cells were imaged using mouse monoclonal antibodies specific for human ZO-1 (Alexa Fluor594, clone ZO1-1A12, molecular probe), CD31 ([…], clone WM59, Biolegends), VE-cadherin (eBioscience) and claudin-5 (Invitrogen), and the nucleus was stained with Hoechst 33342 (molecular probe). Bevacizumab (Avastin, Genentech) was diluted to 500 μg/ml, and microvessels introduced with cancer were treated with the dilution in cancer angiogenesis experiments. Recombinant human TNF-alpha (PetroTech) was diluted to 5 ng/ml, and microvessels were treated with the dilution at 24 hours before introduction of cancer. […]
(§1) For the quantification of cancer angiogenesis, sprout area and the number of sprouts were manually quantified by using Image J. For quantification of cancer intravasation, the microvessels were stained with CD31 and fluorescence imaged, and cancer cells at the apical side of the microvessel were manually counted using the IMARIS software.
The present inventors analyzed the angiogenic potential of cancer cells by using the microvessels having a smooth vessel wall. […]

[2] = test system: MDA-MB-231 cancer cells intravasating into microvessels; experiment: Cancer intravasation assay in microfluidic chip
Description: (§2) Human umbilical vein endothelial cells (HUVEC, Lonza) were cultured in endothelial cell growth medium (EGM-2, Lonza). Normal human lung fibroblasts (LF, Lonza) were cultured in fibroblast growth medium (FGM-2, Lonza). Human glioblastoma cells (U87MG, ATCC, Virginia) were cultured in DMEM medium supplemented with 10% fetal bovine serum (FBS), penicillin (100 U/ml) and streptomycin (100 U/ml). MDA-MA-231 cells were purchased from the ATCC (Manassas, Va.). MDA-MB-231 cells were transfected with a pEGFP plasmid, and cells were selected using 1 mg/ml G418 (A.G. scientific, Inc.). MDA-MA-231 GFP cells obtained from monoclones were incubated in RPMI1640 (WELGENE, Korea) supplemented with 10% fetal bovine serum, 1% penicillin/streptomycin (Gibco, BRL) and 250 μg/ml G418 (A.G. scientific, Inc.). […]
as §1
As a vessel to assess the transendothelial migration of MDA-MB-231 cancer cells, the microvessel obtained in the present invention was used. […] The number of cancer cells intravasated into the microvessels was manually counted. […]

[3] = test system: blood vessels and pericytes (HUVEC-pericyte co-culture); experiment: Response of co-cultured blood vessels and pericytes to added factors; conditions: factor added to blood vessel-pericyte co-culture of Example 5; compared to control group (FIG. 13)
microvessels (HUVEC) = experiment: Microvessel permeability coefficient by time-lapse FITC-dextran imaging; conditions: 5 ng/ml TNF-α over 24 h
Description: as §2, with “Inc.).” for “Inc.). MDA-MA-231 GFP cells obtained from monoclones were incubated in RPMI1640 (WELGENE, Korea) supplemented with 10% fetal bovine serum, 1% penicillin/streptomycin (Gibco, BRL) and 250 μg/ml G418 (A.G. scientific, Inc.).”
To quantify the success rate of the smooth and continuous boundary of microvessels, the length of the vessel boundary was measured, and compared with the straight-line length of the blood vessel channel along the microvessel by use of image J. When the boundary length value was within ±10% of the linear length of the vascular channel, the chip was regarded as success. […] The acquired time-lapse image was analyzed using Image J, and the permeability coefficient was calculated using Equation 1 below: […]
The present inventors introduced 20 kDa FITC-dextran solution into the microvessel to verify the patency of the lumen, and visualized the behavior of the lumen using fluorescence microscopy. […] The present inventors analyzed the junctions by fluorescent immunostaining for claudin-5 and ZO-1 (FIGS. 3C and 3D). […]

VE-cadherin = VE-cadherin immunostaining of cell-cell junctions in microvessels; conditions: 5 ng/ml TNF-α-treated microvessels versus control microvessels (FIG. 5B)
Description: as §2, with “Inc.).” for “Inc.). MDA-MA-231 GFP cells obtained from monoclones were incubated in RPMI1640 (WELGENE, Korea) supplemented with 10% fetal bovine serum, 1% penicillin/streptomycin (Gibco, BRL) and 250 μg/ml G418 (A.G. scientific, Inc.).”
For microvascular DIC (Differential Interference Contrast Microscope) imaging, the Nikon AE31 microscope was used. […] Confocal images were analyzed using IMARIS software (Bitplane, Switzerland). For fluorescence imaging, FITC-dextran-injected samples were imaged using the IX81 inverted microscope (Olympus).
As a vessel to assess the transendothelial migration of MDA-MB-231 cancer cells, the microvessel obtained in the present invention was used. […] The number of cancer cells intravasated into the microvessels was manually counted. […] In addition, the effect of TNF-α on cancer cell intravasation was analyzed. the rate of intravasation with or without TNF-α treatment was compared (n=7 chips per condition). […]

[4] = 3 days after introduction of U87MG cells, versus U87MG without bevacizumab

Molecule	coverage area of sprouts [1, 4]	number of sprouts [1, 4]	microvascular sprouts / vessel boundary in micrographs ([1]; microscopic images 3 days after injection of cancer cells (FIG. 4A))	rate of cancer intravasation relative to control ([2]; 5 ng/ml TNF-α 24 hours before introduction of MDA-MB-231 cells, n=7 chips per condition) [fold]	rate of cancer intravasation (in words) ([2]; TNF-α-treated microvessels compared with control experiment, p<0.0005)	response of pericytes and blood vessels [3]	permeability of TNF-α-treated microvessels (microvessels (HUVEC); mean±standard error, n=5 chips)	permeability relative to normal condition (microvessels (HUVEC); versus normal condition) [fold]	VE-cadherin junction morphology (VE-cadherin)
bevacizumab: anti-vascular endothelial growth factor (anti-VEGF) antibody, Avastin, Genentech	significantly reduced; also recorded: drastically decreasing	significantly reduced; also recorded: drastically decreasing	greatly reduced; also recorded: flat boundary without angiogenic sprouts						
TNF-α				3	very high rate of cancer intravasation	pericytes sprouted out from the blood vessels and formed many filopodia	2.22±0.67×10^−6 cm/s	1.4	disrupted and pleated form; also recorded: disrupted continuity and wrinkled morphology
B1						pericytes sprouted out from the blood vessels and formed many filopodia			
